Source: patent US9765037B2, “Compositions and methods for treating toxoplasmosis, cryptosporidiosis, and other apicomplexan protozoan related diseases” (University of Washington Through its Center for …, priority 2010, dated 2017)
In brackets after ≈: the same amount, converted by molar mass. Like-named read-outs stand apart in the source and are kept apart here.

Experiments:
C. parvum = assay: Immunosuppressed (SCID-beige) mouse C. parvum model; format: in vivo, Cryptosporidium parvum; conditions: SCID-beige mice; oral gavage once a day, days 3-7 and 10-14; 29 and 150 at 50 mg/kg/day, Paromomycin 2 g/kg/day
Protocol: Shown are mean of the parasite numbers detected in 25 mg of stool from each mouse, by qRT-PCR.

CpCDPK1 = CpCDPK1 (Cryptosporidium parvum (strain Iowa II), UniProt A3FQ16); assay: biochemical; format: biochemical
PfCDPK1 = PfCDPK1 (Plasmodium falciparum (isolate 3D7), UniProt P62344); assay: biochemical
PfCDPK4 = PfCDPK4 (Plasmodium falciparum (isolate 3D7), UniProt Q8IBS5); assay: biochemical
Src3D = Src3D (Homo sapiens (Human), UniProt P12931); assay: biochemical
AblKD = AblKD (Homo sapiens (Human), UniProt P00519); assay: Tyrosine kinase IC50, AblKD; format: biochemical; conditions: Table 9
glioma derived (SF539) = assay: Growth inhibition of human cell line SF539; conditions: for GI50: read-out: GI50 (μM) SF539, human cell line SF539
[1] = system: human promyelocytic leukemia (HL-60); assay: Growth inhibition of human cell line HL-60; conditions: for GI50: read-out: GI50 (μM) HL60, human cell line HL60
[2] = system: human lymphocyte (CRL8155); assay: Growth inhibition of human cell line CRL8155; conditions: for GI50: read-out: GI50 (μM) CRL8155, human cell line CRL8155
[3] = system: colorectal carcinoma (HC 2998); assay: Growth inhibition of human cell line HC 2998; conditions: for GI50: read-out: GI50 (μM) HCC2998, human cell line HCC2998
human fibroblast = assay: Human fibroblast replication / cytotoxicity (Alamar blue); format: cell-based
[4] = Solubility in buffers of various pH; format: physicochemical; conditions: buffer
[5] = Blood levels after oral gavage dosing of mice (LC-MS)
SrcKD = SrcKD (Homo sapiens (Human), UniProt P12931); assay: Tyrosine kinase IC50, SrcKD; format: biochemical
SRC = SRC (Homo sapiens (Human), UniProt P12931)
[6] = system: P. berghei expressing GFP; assay: P. berghei transmission from treated mice to A. stephensi; conditions: mice treated i.p., Compound 29 at 10 mg/kg; mosquitoes fed 30 minutes after dosing
HckKD = HckKD (Homo sapiens (Human), UniProt P08631); assay: Tyrosine kinase IC50, HckKD; format: biochemical; conditions: Table 9
in vivo = conditions: mouse, ip
[7] = Table 8, read-out: IC50 (μM) CpCDPK1
[8] = pH 6.5, aqueous buffer, read-out: Experimental Solubility pH 6.5
[9] = aqueous buffer, pH 2.0, read-out: Experimental Solubility pH 2.0
[10] = pH 7.4, aqueous buffer, read-out: Experimental Solubility pH 7.4

SMILES | EC50 (PfCDPK1) [nM] | EC50 (PfCDPK4) [nM] | IC50 (AblKD) [µM] | Cell Toxicity SF539, % at 10 μM (glioma derived (SF539)) [% at 10 μM] | Cell Toxicity HL60, % at 10 μM [1] [% at 10 μM] | Cell Toxicity CRL8155, % at 10 μM [2] [% at 10 μM] | Cell Toxicity HCC2998, % at 10 μM [3] [% at 10 μM] | Observed HFF Toxicity (T at concentration) (human fibroblast) | solubility [4, 8] [µM] | further results
NC[C@@H]1O[C@H](O[C@H]2[C@@H](O)[C@H](O[C@@H]3[C@@H](O)[C@H](N)C[C@H](N)[C@H]3O[C@H]3O[C@H](CO)[C@@H](O)[C@H](O)[C@H]3N)O[C@@H]2CO)[C@H](N)[C@@H](O)[C@@H]1O [Paromomycin, reference compound] | – | – | – | – | – | – | – | – | – | parasite burden rebound after treatment (C. parvum): quickly rebounded; parasites in stool (qRT-PCR) at the end of treatment (C. parvum): not detected
CC(C)n1nc(-c2cc3ccccc3[nH]2)c2c(N)ncnc21 [Compound 24, 3-(1H-indol-2-yl)-1-isopropyl-1H-pyrazolo[3,4-d]pyrimidin-4-amine] | 471 | 337 | – | – | – | – | – | – | – | IC50 (CpCDPK1; [7]): 0.0704 µM; IC50 (Src3D): 1450 nM
CC(C)(C)n1nc(Cc2cccc3ccccc23)c2c(N)ncnc21 [Compound 5d, 1-tert-butyl-3-(naphthalen-1-ylmethyl)-1H-pyrazolo[3,4-d]pyrimidin-4-amine] | – | – | 7.7 | <30 | <30 | <30 | <30 | – | – | IC50 (CpCDPK1; [7]): 0.144 µM; IC50 (CpCDPK1; read-out: CpCDPK1 IC50): 0.14 µM; GI50 (glioma derived (SF539)): > 10 µM; GI50 [1]: > 10 µM; GI50 [2]: > 10 µM; GI50 [3]: > 10 µM
CCCCOc1ccc2cc(-c3nn(C(C)C)c4ncnc(N)c34)ccc2c1 [Compound 42, 3-(6-butoxynaphthalen-2-yl)-1-isopropyl-1H-pyrazolo[3,4-d]pyrimidin-4-amine] | 156 | 308 | – | – | – | – | – | T at 100 μM | 4.4 (≈ 1.65 µg/mL) | AUC ([5]; mouse, in vivo, po): 40.6 µM·h; Cmax ([5]; mouse, in vivo, po): 10.7 µM; Tmax ([5]; mouse, in vivo, po): 2.67 h
CCOc1ccc2cc(-c3nn(CC4CCN(C)CC4)c4ncnc(N)c34)ccc2c1 [Compound 150, 3-(6-ethoxynaphthalen-2-yl)-1-((1-methylpiperidin-4-yl)methyl)-1H-pyrazolo[3,4-d]pyrimidin-4-amine] | – | 33.7 | > 3 | – | <30 | <30 | – | T at 25 μM | – | IC50 (SrcKD; Table 9): > 10 µM; IC50 (PfCDPK4): 10 nM; parasites in stool (qRT-PCR) at the end of treatment (C. parvum): not detected; Cell Toxicity HL60, % at 30 μM [1]: <30% at 30 μM; Cell Toxicity CRL8155, % at 30 μM [2]: <30% at 30 μM; Blood level, First Peak ([5]; mice, 40 mg/kg oral gavage 3x daily for 4 days, 1 hr after first dose, mean±SD, N=3): 2.1 ± 1.2 µM; Blood level, Fourth D4 Peak ([5]; mice, 40 mg/kg oral gavage 3x daily for 4 days, 1 hr after third dose of d4, mean±SD, N=3): 8.9 ± 3.4 µM; Blood level, First Trough ([5]; mice, 40 mg/kg oral gavage 3x daily for 4 days, 17 hours after dosing, beginning of d2, mean±SD, N=3): 2.0 ± 1.6 µM; Cmax ([5]; mouse, in vivo, po, 10 mg/kg): 0.8 µM; Tmax ([5]; mouse, in vivo, po, 10 mg/kg): 2.15 h; concentration at 17 h ([5]; mouse, in vivo, po, 40 mg/kg): 6.3 ± 1.8 µM
Nc1ncnc2c1cnn2CC1CCNCC1 [Compound 99] | – | – | > 10 | – | – | – | – | – | – | IC50 (SrcKD; Table 9): > 10 µM
CC(C)(C)n1nc(-c2cccc3ccccc23)c2c(N)ncnc21 [Compound 1, 1-tert-butyl-3-(naphthalen-1-yl)-1H-pyrazolo[3,4-d]pyrimidin-4-amine] | – | – | – | – | – | – | – | – | – | IC50 (CpCDPK1; read-out: IC50 (μM) CpCDPK1): > 3 µM; IC50 (SrcKD): 1.3 µM; inhibition of SRC (in words) (SRC): do not potently inhibit; IC50 (SRC; read-out: IC50 (μM) Src): 1.3 µM; GI50 (glioma derived (SF539)): > 10 µM; GI50 [1]: > 10 µM; GI50 [2]: > 10 µM; GI50 [3]: > 10 µM
C=CCOc1ccc2cc(-c3nn(C(C)C)c4ncnc(N)c34)ccc2c1 [Compound 41, 3-(6-(allyloxy)naphthalen-2-yl)-1-isopropyl-1H-pyrazolo[3,4-d]pyrimidin-4-amine] | 36.3 | 19.2 | – | – | <30 | <30 | – | T at 100 μM | 4.4 (≈ 1.58 µg/mL) | AUC ([5]; mouse, in vivo, po): 52.9 µM·h; Cmax ([5]; mouse, in vivo, po): 13.6 µM; Tmax ([5]; mouse, in vivo, po): 1.67 h
CC(C)(C)n1nc(-c2ccc3ccccc3c2)c2c(N)ncnc21 [NA-PP2, reference compound] | – | – | – | – | – | – | – | – | – | formation of oocysts in A. stephensi fed on treated mice [6]: hundreds of oocysts per mosquito
CCCCOc1ccc2cc(-c3nn(CC4CCNCC4)c4ncnc(N)c34)ccc2c1 [Compound 35, 3-(6-butoxynaphthalen-2-yl)-1-(piperidin-4-ylmethyl)-1H-pyrazolo[3,4-d]pyrimidin-4-amine] | 151 | 31.2 | – | <30 | <30 | <30 | <30 | 25 to 100 µM | 45 (≈ 19.4 µg/mL) | IC50 (CpCDPK1; [7]): 0.0044 µM; IC50 (HckKD): > 10 µM
C=CCOc1ccc2cc(-c3nn(CC4CCNCC4)c4ncnc(N)c34)ccc2c1 [Compound 36, 3-(6-(allyloxy)naphthalen-2-yl)-1-(piperidin-4-ylmethyl)-1H-pyrazolo[3,4-d]pyrimidin-4-amine] | 146 | 15.7 | – | <30 | <30 | <30 | <30 | T at 100 μM | – | IC50 (HckKD): > 10 µM; AUC ([5]; mouse, in vivo, po): 1.83 µM·h; Cmax ([5]; mouse, in vivo, po): 0.59 µM; Tmax ([5]; mouse, in vivo, po): 3.67 h
CC(C)(C)n1ncc2c(N)ncnc21 [Compound 123] | – | – | > 10 | – | – | – | – | – | – | IC50 (SrcKD; Table 9): > 10 µM
CC(C)COc1ccc2cc(-c3nn(CC4CCNCC4)c4ncnc(N)c34)ccc2c1 [Compound 44, 3-(6-isobutoxynaphthalen-2-yl)-1-(piperidin-4-ylmethyl)-1H-pyrazolo[3,4-d]pyrimidin-4-amine] | 182 | 58.3 | – | – | – | – | – | T at 100 μM | 38 (≈ 16.4 µg/mL) | solubility [4, 9]: 47 µM (≈ 20.2 µg/mL); solubility [4, 10]: 33 µM (≈ 14.2 µg/mL); AUC ([5]; mouse, in vivo, po): 2.47 µM·h; Cmax ([5]; mouse, in vivo, po): 0.95 µM; Tmax ([5]; mouse, in vivo, po): 3 h
COc1ccc2cc(-c3nn(CC4CCNCC4)c4ncnc(N)c34)ccc2c1 [Compound 28, 3-(6-methoxynaphthalen-2-yl)-1-(piperidin-4-ylmethyl)-1H-pyrazolo[3,4-d]pyrimidin-4-amine] | 739 | 18.8 | > 20 | <30 | <30 | <30 | <30 | – | 58 (≈ 22.5 µg/mL) | IC50 (CpCDPK1; [7]): 0.0023 µM; IC50 (SrcKD; Table 9): > 20 µM; IC50 (HckKD): > 10 µM; solubility [4, 9]: 49 µM (≈ 19 µg/mL); solubility [4, 10]: 56 µM (≈ 21.8 µg/mL); AUC (in vivo): 151 µM·h; Cmax (in vivo): 84.1 µM; Tmax (in vivo): 0.667 h; Cell Toxicity HL60, % at 30 μM [1]: <30% at 30 μM; Cell Toxicity CRL8155, % at 30 μM [2]: <30% at 30 μM; AUC ([5]; mouse, in vivo, po): 20.5 µM·h; Cmax ([5]; mouse, in vivo, po): 4.41 µM; Tmax ([5]; mouse, in vivo, po): 2.67 h
Nc1ncnc2c1c(-c1cnc3ccccc3c1)nn2CC1CCNCC1 [Compound 30, 1-(piperidin-4-ylmethyl)-3-(quinolin-3-yl)-1H-pyrazolo[3,4-d]pyrimidin-4-amine] | – | – | > 20 | <30 | <30 | <30 | <30 | – | – | IC50 (CpCDPK1; [7]): 0.0837 µM; IC50 (SrcKD; Table 9): > 20 µM; Cell Toxicity HL60, % at 30 μM [1]: <30% at 30 μM; Cell Toxicity CRL8155, % at 30 μM [2]: <30% at 30 μM
CC(C)(C)n1nc(-c2ccccc2)c2c(N)ncnc21 [Compound 140] | 337 | 399 | 0.636 | – | – | – | – | – | 22 (≈ 5.88 µg/mL) | –
CCCOc1ccc2cc(-c3nn(CC4CCNCC4)c4ncnc(N)c34)ccc2c1 [Compound 33, 1-(piperidin-4-ylmethyl)-3-(6-propoxynaphthalen-2-yl)-1H-pyrazolo[3,4-d]pyrimidin-4-amine] | 196 | 21.1 | – | <30 | <30 | <30 | 30 | T at 100 μM | – | IC50 (HckKD): > 10 µM
